In US20110190246A1, “ESTRATRIENE DERIVATIVES COMPRISING HETEROCYCLIC BIOISOSTERES FOR THE PHENOLIC A-RING” (Bayer Schering Pharma Aktiengesellschaft, priority 2008, published 2011):

Experiments:
[1] = biological target: T1, ERα (Homo sapiens, UniProt P03372); experiment: Transactivation assay in stably transfected MCF-7 cells (MVLN assay); assay type: cell-based; set-up: MCF-7 cells endogenously expressing ERα; endogenous in cells; host or cells: MCF-7 stably transfected with vitellogenin-tk-luciferase reporter (MVLN)
T1 sequence (P03372 1-595): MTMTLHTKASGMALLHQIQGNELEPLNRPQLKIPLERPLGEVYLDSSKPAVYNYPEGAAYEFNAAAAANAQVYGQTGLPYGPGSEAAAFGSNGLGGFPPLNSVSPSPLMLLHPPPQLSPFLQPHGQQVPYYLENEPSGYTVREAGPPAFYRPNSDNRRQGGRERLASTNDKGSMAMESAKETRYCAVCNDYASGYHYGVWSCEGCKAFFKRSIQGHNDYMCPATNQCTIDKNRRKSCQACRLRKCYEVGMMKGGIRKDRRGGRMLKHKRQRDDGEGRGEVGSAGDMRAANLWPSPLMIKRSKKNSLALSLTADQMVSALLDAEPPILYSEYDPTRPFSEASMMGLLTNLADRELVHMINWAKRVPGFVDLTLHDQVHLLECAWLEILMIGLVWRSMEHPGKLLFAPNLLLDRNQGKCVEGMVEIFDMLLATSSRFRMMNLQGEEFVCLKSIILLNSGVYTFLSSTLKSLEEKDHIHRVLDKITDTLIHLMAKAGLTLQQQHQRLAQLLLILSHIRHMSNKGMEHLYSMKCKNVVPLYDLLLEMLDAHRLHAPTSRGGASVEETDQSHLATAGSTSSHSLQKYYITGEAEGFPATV
Experimental: To analyse activation of the ERα by diverse tool compounds in a second cellular system, we used MCF-7 cells endogenously expressing ERα and stably transfected with the estrogen-responsive vitellogenin-tk-luciferase reporter plasmid. […]. Luciferase activity was measured after addition of 25 μl steady-Glo in a TopCount. Dose response curves were generated and EC50 values were calculated using Sigma plot.

[2] = biological target: T2, ERα (Rattus norvegicus, UniProt P06211); experiment: Stimulation of uterine growth in vivo in ovariectomized rats; set-up: species or system Wistar rats; settings: for uterotrophic activity (increase in relative uterine weight): dose response curves, FIGS. 2-3
T2 construct: from tissue; host or cells: uterus of ovariectomized adult female Wistar rats (in vivo)
T2 sequence (P06211 1-600): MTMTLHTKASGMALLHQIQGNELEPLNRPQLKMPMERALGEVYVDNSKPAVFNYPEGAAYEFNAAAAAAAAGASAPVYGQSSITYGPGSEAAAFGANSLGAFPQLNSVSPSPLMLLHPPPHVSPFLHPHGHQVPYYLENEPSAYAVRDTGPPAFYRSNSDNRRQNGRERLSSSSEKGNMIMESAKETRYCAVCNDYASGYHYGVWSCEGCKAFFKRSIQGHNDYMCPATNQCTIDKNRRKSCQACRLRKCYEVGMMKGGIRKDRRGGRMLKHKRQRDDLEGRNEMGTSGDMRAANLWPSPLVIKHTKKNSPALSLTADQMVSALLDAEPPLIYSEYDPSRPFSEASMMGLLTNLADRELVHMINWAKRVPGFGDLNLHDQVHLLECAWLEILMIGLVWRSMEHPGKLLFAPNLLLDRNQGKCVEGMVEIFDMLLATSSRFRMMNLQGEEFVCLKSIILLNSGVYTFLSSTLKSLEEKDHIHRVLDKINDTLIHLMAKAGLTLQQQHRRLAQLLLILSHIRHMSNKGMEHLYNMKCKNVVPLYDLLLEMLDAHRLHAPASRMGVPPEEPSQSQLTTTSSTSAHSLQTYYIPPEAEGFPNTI

[3] = system: hepatic gene CaBP; experiment: Induction of the hepatic gene CaBP (hepatic estrogenicity); assay type: in vivo; settings: dose response curves, FIGS. 1-3
Excerpt: Data regarding the uterine and hepatic activity of example 1 and example 4 in comparison to Ethinylestradiol are shown in FIGS. 1, 2, and 3. Dose response curves describing the increases in relative uterine weight (closed circles) and the induction of the hepatic gene CaBP (open circles) are shown for ethinylestradiol (FIG 1), example 1 (FIG. 2), and example 4 (FIG. 3). […] This may implicate that compounds of example 1 and 4 show lower hepatic estrogenicity if compared to Ethinylestradiol.

[4] = system: human cryopreserved hepatocytes; experiment: Stability in hepatocytes; assay type: in vitro ADME; settings: maximal theoretical bioavailability
Experimental: The metabolic stability of test compounds with respect to phase 1 and phase 2 metabolisms was investigated by incubation of the compounds with hepatocytes. These investigations were performed for characterisation of compounds in case of phase 2 metabolism is to be expected. […] After analytical workup the concentrations of the test compounds after different incubation periods were related to the initial concentration of the respective test compound (zero hour's time point). The resulting area under the concentration-time-curve of the test compound investigated in the assay is used to derive the respective Fmax value.

[5] = biological target: T3, estrogen receptor α (ERα) (Homo sapiens, UniProt P03372); experiment: Binding to estrogen receptor α (competition with 3H-estradiol); settings: KF = IC50 of test compound / IC50 of estradiol
T3 construct: made in house; host or cells: Hi5 insect cells (baculovirus)
Experimental: The ERα protein used in the binding assay was purified from cytosolic fractions of Hi5 cells transfected with recombinant bacuioviruses encoding either the human ERα. Aliquots of cytosolic fractions were stored at −80° C. and had protein concentrations of 5-7 mg/ml (as determined by the BCA method).
30 μl of cytosol were added leading to a final volume of 50 μl per well. […] The protein-bound radioactivity was measured by addition of 200 μl Microszint-40 (Canberra Packard) to each well using a TopCount scintillation counter.

[6] = biological target: T1, ERα; experiment: Induction of alkaline phosphatase in human endometrial Ishikawa cells; assay type: cell-based; settings: 72 hours, read-out: EC50 Alkaline phoshatase induction, Ishikawa cells
Experimental: Alkaline phosphatase is an estrogen target gene in the normal uterine epithelium as well as in endometrial-derived cancer cells, such as Ishikawa cells. […]. Ishikawa cells (from European collection of cell cultures) were maintained in phenolred-free MEM with 5% FCS, 4 mM glutamine, 1% non, essential amino acids and 100 U/ml penicillin and 100 μg/ml streptomycin. […]. On the third day, the media were removed; cells were washed two times with 50 μl PBS and then frozen at −80° C. for 20 min. After thawing at room temperature for 10 min, cells were incubated with 100 μl of 1-Step PNPP reagent (Pierce) and incubated for 1.5 h at room temperature. OD was measured at 405 nm sing a Polarstar Optima. Dose response curves were generated using and ED50 values were calculated using Sigma plot.

[7] = biological target: T1, ERα; experiment: Transactivation assay in U2OS cells; assay type: cell-based; settings: U2OS cells transiently transfected with ERα and luciferase reporter, 24 hours
[8] = luciferase reporter, Table 2, read-out: MVLN-Transactivation (EC50 in nM)

## C[C@]12CCC3c4ccc5[nH]ncc5c4CCC3C1CC[C@@]2(O)C(F)(F)C(F)(F)F (stereo partly drawn) [Example 10, 17α-Pentafluoroethyl-2′H-pyrazolo[3′,4′:3,4]estra-1,3,5(10)-trien-17β-ol]
[1]; [8]
  EC50: 270 nM

## C=C[C@]1(O)CCC2C3CCc4c(ccc5[nH]ncc45)C3CC[C@@]21C (stereo partly drawn) [Example 5, 17α-Vinyl-2′H-pyrazolo[3′,4′:3,4]estra-1,3,5(10)-trien-17β-ol]
[1]; [8]
  EC50: 3.72 nM

## CC#C[C@]1(O)CCC2C3CCc4c(ccc5[nH]ncc45)C3CC[C@@]21C (stereo partly drawn) [Example 8, 17α-(Prop-1-inyl)-2′H-pyrazolo[3′,4′:3,4]estra-1,3,5(10)-trien-17β-ol]
[1]; [8]
  EC50: 16.5 nM

## C[C@]12CCC3c4ccc5[nH]ncc5c4CCC3C1CCC2=O (some centres unmarked) [Example 2, 2′H-Pyrazolo[3′,4′:3,4]estra-1,3,5(10)-trien-17-one]
[1]; [8]
  EC50: 12.6 nM

## C[C@]1(O)CCC2C3CCc4c(ccc5[nH]ncc45)C3CC[C@@]21C (stereo partly drawn) [Example 3, 17α-Methyl-2′H-pyrazolo[3′,4′:3,4]estra-1,3,5(10)-trien-17β-ol]
[1]; [8]
  EC50: 3.53 nM

## C[C@]12CCC3c4ccc5[nH]ncc5c4CCC3C1CC[C@@]2(O)C(F)(F)F (stereo partly drawn) [Example 9, 17α-Trifluoromethyl-2′H-pyrazolo[3′,4′:3,4]estra-1,3,5(10)-trien-17β-ol]
[1]; [8]
  EC50: 77.3 nM

## CC[C@]1(O)CCC2C3CCc4c(ccc5[nH]ncc45)C3CC[C@@]21C (stereo partly drawn) [Example 6, 17α-Ethyl-2′H-pyrazolo[3′,4′:3,4]estra-1,3,5(10)-trien-17β-ol]
[1]; [8]
  EC50: 130 nM

## C[C@]12CCC3c4ccc5[nH]nnc5c4CCC3C1CCC2=O (some centres unmarked) [Example 11, 3′H-Triazolo[4′,5′:3,4]estra-1,3,5(10)-trien-17-on]
[1]; [8]
  EC50: 308 nM

## C#C[C@]1(O)CCC2C3CCc4c(ccc5[nH]ncc45)C3CC[C@@]21C (stereo partly drawn) [Example 4, 17α-Ethinyl-2′H-pyrazolo[3′,4′:3,4]estra-1,3,5(10)-trien-17β-ol]
[2]
  uterotrophic activity (increase in relative uterine weight): full uterotrophic activity
[3]
  induction of the hepatic gene CaBP: do not stimulate this hepatic gene
[1]; [8]
  EC50: 1.01 nM

## C#C[C@]1(O)CC[C@H]2[C@@H]3CCc4cc(O)ccc4[C@H]3CC[C@@]21C [Ethinylestradiol, reference compound]
[3]
  induction of the hepatic gene CaBP: significant induction of CaBP

## C[C@]12CCC3c4ccc5[nH]ncc5c4CCC3C1CC[C@@H]2O (stereo partly drawn) [Example 1, 2′H-Pyrazolo[3′,4′:3,4]estra-1,3,5(10)-trien-17β-ol]
[4]
  Fmax (calculated from hepatocyte stability): 34%
[2]
  uterotrophic activity (increase in relative uterine weight): full uterotrophic activity
[2]; ovariectomized Wistar rats, subcutaneously daily for 14 days, relative uterine weight
  ED50 Uterine growth: 8.25 μg/kg bodyweight
[5]
  ERα binding [KF]: 1.6
[6]
  EC50: 0.759 nM
[3]
  induction of the hepatic gene CaBP: do not stimulate this hepatic gene
[7]
  EC50: 0.082 nM
[1]; [8]
  EC50: 1.41 nM
[1]; vitellogenin-tk-luciferase reporter, 24 hours, Table 1, read-out: EC50 ERα transactivation, MVLN assay
  EC50: 1.42 nM

## C=CC[C@]1(O)CCC2C3CCc4c(ccc5[nH]ncc45)C3CC[C@@]21C (stereo partly drawn) [Example 7, 17α-Allyl-2′H-pyrazolo[3′,4′:3,4]estra-1,3,5(10)-trien-17β-ol]
[1]; [8]
  EC50: 82.6 nM

## C[C@]12CC[C@@H]3c4ccc(O)cc4CC[C@H]3[C@@H]1CC[C@@H]2O [Estradiol, reference compound]
[4]
  Fmax (calculated from hepatocyte stability): 17%
